Source: patent US5344831A, “Diazabicyclo derivatives” (Nisshin Flour Milling Co., Ltd., priority 1992, dated 1994)
Structures can show the parent of a compound that is named as a salt.

Assays:
[1] = system: 5-HT3 receptors; assay: antagonism of the von Bezold-Jarisch reflex (bradycardia) induced by 5-HT in the anaesthetised rat; format: in vivo; settings: 5-HT 30 μg/kg given 5 min later, tested as hydrochloride salts
Experimental: Temporary bradycardia is induced by administration of 5-HT (serotonin) to anaesthetised rats via jugular vein (yon Bezold Jarisch Reflex) (A. S. Paintal, Physiol. Rev., 53, 159-210 (1973 ) ).
The compounds of the present invention were evaluated for antagonism of the yon Bezold-Jarisch reflex induced by 5-HT in the anaesthetised rat according to the following method.
Rats were anaesthetised with urethane (1 g/kg, intraperitoneally ) and blood pressure and heart rate recorded from left femoral artery. Percent inhibition was calculated from bradycardia induced by 5-HT (30 μg/kg ) given 5 minutes following intrajugular administration of a compound of the invent ion, taking the bradycardia induced by the intrajugular administration of 5-HT. The compounds of the present invention were tested in the form of their hydrochloride salts.

[2] = system: nausea and vomiting; settings: intravenous administration at high dose; Gralla et al, N. Engl. J. Med. 305, 905-909 (1981); cited from earlier work

| SMILES | Percent Inhibition ([1]; 0.1 μg/kg i.v.) [%] | Percent Inhibition ([1]; 1.0 μg/kg i.v.) [%] | Percent Inhibition ([1]; 10 μg/kg i.v.) [%] | Percent Inhibition ([1]; 0.01 μg/kg i.v.) [%] | prevention of nausea and vomiting [2] |
| --- | --- | --- | --- | --- | --- |
| CN1[C@@H]2CNC[C@H]1C[C@@H](NC(=O)c1n[nH]c3ccccc13)C2 [Example 23, endo-9-Methyl-3,9-diazabicyclo[3.3.1]non-7-yl 1H-indazole-3-carboxamide] | 28 | 82 |  |  |  |
| CC(C)=CCn1nc(C(=O)N[C@@H]2C[C@@H]3CN(C)C[C@H](C2)N3C)c2ccccc21 [Example 8, endo-3,9-Dimethyl-3,9-diazabicyclo[3.3.1]non-7-yl 1-(3-methyl-2-butenyl) indazole-3-carboxamide] | 48 | 100 |  |  |  |
| C=CCCCCCCn1nc(C(=O)N[C@@H]2C[C@@H]3CN(C)C[C@H](C2)N3C)c2ccccc21 [Example 6, endo-3,9-Dimethyl-3,9-diazabicyclo[3.3.1]non-7-yl 1-(7octenyl) indazole-3-carboxamide] | 19 | 35 | 87 |  |  |
| CCOCCn1nc(C(=O)N[C@@H]2C[C@@H]3CN(C)C[C@H](C2)N3C)c2ccccc21 [Example 17, endo-3,9-Dimethyl-3,9-diazabicyclo[3.3.1]non-7-yl 1-ethoxyethylindazole-3-carboxamide] | 53 |  |  | 33 |  |
| CN1C[C@H]2C[C@@H](NC(=O)c3nn(Cc4ccccn4)c4ccccc34)C[C@@H](C1)N2C [Example 15, endo-3,9-Dimethyl-3,9-diazabicyclo[3.3.1]non-7-yl 1-(2-pyridylmethyl) indazole-3-carboxamide] | 47 |  |  |  |  |
| CC(C)CN1C[C@H]2C[C@@H](NC(=O)c3n[nH]c4ccccc34)C[C@@H](C1)N2C [Example 29, endo-3-Isobutyl-9-methyl-3,9-diazabicyclo[3.3.1]non-7-yl 1H-indazole-3-carboxamide] | 81 |  |  | 27 |  |
| CN1C[C@H]2C[C@@H](NC(=O)c3nn(Cc4cccc(Cl)c4)c4ccccc34)C[C@@H](C1)N2C [Example 13, endo-3,9-Dimethyl-3,9-diazabicyclo[3.3.1]non-7-yl 1-(3-chlorobenzyl)indazole-3-carboxamide] | 27 | 71 |  |  |  |
| C#CCn1nc(C(=O)N[C@@H]2C[C@@H]3CN(C)C[C@H](C2)N3C)c2ccccc21 [Example 7, endo-3,9-Dimethyl-3,9-diazabicyclo[3.3-1]non-7-Yl 1-(2propynyl) indazole-3-carboxamide] | 30 | 83 |  |  |  |
| CCOCCN1C[C@H]2C[C@@H](NC(=O)c3n[nH]c4ccccc34)C[C@@H](C1)N2C [Example 30, endo-3-(2-Ethoxyethyl)-9-methyl-3,9-diazabicyclo[3.3.1]non-7-yl 1H-indazole-3-carboxamide] | 52 | 100 |  |  |  |
| CN1C[C@H]2C[C@@H](NC(=O)c3nn(CC#N)c4ccccc34)C[C@@H](C1)N2C [Example 10, endo-3,9-Dimethyl-3,9-diazabicyclo[3.3.1]non-7-yl 1-cyanomethylindazole-3-carboxamide] | 37 | 100 |  |  |  |
| CN1C[C@H]2C[C@@H](NC(=O)c3n[nH]c4ccccc34)C[C@@H](C1)N2Cc1ccccc1 [Example 24, endo-9-Benzyl-3-methyl-3,9-diazabicyclo[3.3.1]non-7-yl 1H-indazole-3-carboxamide] | 35 |  |  |  |  |
| CC(=O)N1C[C@H]2C[C@@H](NC(=O)c3n[nH]c4ccccc34)C[C@@H](C1)N2C [Example 28, endo-3-Acetyl-9-methyl-3,9-diazabicyclo[3.3.1]non-7-yl 1H-indazola-3-carboxamide] | 23 | 71 |  |  |  |
| CN1C[C@H]2C[C@@H](NC(=O)c3nn(CC4CC4)c4ccccc34)C[C@@H](C1)N2C [Example 4] | 60 |  |  |  |  |
| CN1[C@@H]2C[C@@H](NC(=O)c3n[nH]c4ccccc34)C[C@H]1CN(Cc1ccccc1)C2 [Example 22, endo-3-Benzyl-9-methyl-3,9-diazabicyclo[3.3.1]non-7-yl 1H-indazole-3-carboxamide] | 48 | 87 |  |  |  |
| C=CCn1nc(C(=O)N[C@@H]2C[C@@H]3CN(C)C[C@H](C2)N3C)c2ccccc21 [Example 2, endo-3,9-Dimethyl-3,9-diazabicyclo[3.3.1]non-7-yl 1-allylindazole-3-carboxamide hydrochloride] | 86 |  |  | 11 |  |
| CN1C[C@H]2C[C@@H](NC(=O)c3nn(Cc4ccc([N+](=O)[O-])cc4)c4ccccc34)C[C@@H](C1)N2C [Example 9, endo-3,9-Dimethyl-3,9-diazabicyclo[3.3.1]non-7-yl 1-(4nitrobenzyl) indazole-3-carboxamide] | 41 | 96 |  | 14 |  |
| COC(=O)Cn1nc(C(=O)N[C@@H]2C[C@@H]3CN(C)C[C@H](C2)N3C)c2ccccc21 [Example 16, endo-3,9-Dimethyl-3,9-diazabicyclo[3.3.1]non-7-yl 1-methoxycarbonylmethylindazole-3-carboxamide] | 34 |  | 88 |  |  |
| CN1[C@@H]2C[C@@H](NC(=O)c3n[nH]c4ccccc34)C[C@H]1CN(Cc1ccc(F)cc1)C2 [Example 27, endo-3-(4-Fluorobenzyl)-9-methyl-3,9-diazabicyclo[3.3.1]non-7-yl 1H-indazole-3-carboxamide] | 75 | 98 |  |  |  |
| C=CCN1C[C@H]2C[C@@H](NC(=O)c3n[nH]c4ccccc34)C[C@@H](C1)N2C [Example 26, endo-3-Allyl-9-methyl-3,9-diazabicyclo[3.3.1]non-7-yl 1H-indazole-3-carboxamide] | 38 |  |  |  |  |
| CC(C)COC(=O)n1nc(C(=O)N[C@@H]2C[C@@H]3CN(C)C[C@H](C2)N3C)c2ccccc21 [Example 18, endo-3,9-Dimethyl-3,9-diazabicyclo[3.3.1]non-7-yl 1-isobutoxycarbonylindazole-3-carboxamide] | 23 | 53 |  |  |  |
| CN1C[C@H]2C[C@@H](NC(=O)c3nn(Cc4ccccc4[N+](=O)[O-])c4ccccc34)C[C@@H](C1)N2C [Example 14, endo-3,9-Dimethyl-3,9-diazabicyclo[3.3.1]non-7-yl 1-(2-nitrobenzyl) indazole-3-carboxamide] | 18 | 97 |  |  |  |
| CN1C[C@H]2C[C@@H](NC(=O)c3nn(Cc4nc(N)nc(N)n4)c4ccccc34)C[C@@H](C1)N2C [Example 21] | 38 | 85 |  | 21 |  |
| CN1C[C@H]2C[C@@H](NC(=O)c3n[nH]c4ccccc34)C[C@@H](C1)N2 [Example 25, endo-3-Methyl-3,9-diazabicyclo[3.3.1]non-7-yl 1H-indazole-3-carboxamide] | 21 |  |  |  |  |
| CCN(CC)CCNC(=O)c1cc(Cl)c(N)cc1OC [metoclopramide] |  |  |  |  | effectively prevented |
| CC(O)Cn1nc(C(=O)N[C@@H]2C[C@@H]3CN(C)C[C@H](C2)N3C)c2ccccc21 (stereo partly drawn) [Example 19, endo-3,9-Dimethyl-3,9-diazabicyclo[3.3.1]non-7-yl 1-(2hydroxypropyl) indazole-3-carboxamide] | 59 |  |  | 40 |  |
| CN1C[C@H]2C[C@@H](NC(=O)c3nn(Cc4ccc(N)cc4)c4ccccc34)C[C@@H](C1)N2C [Example 20, endo-3,9-Dimethyl-3,9-diazabicyclo[3.3.1]non-7-yl 1-(4aminobenzyl) indazole-3-carboxamide] | 73 |  |  | 51 |  |
| CN1C[C@H]2C[C@@H](NC(=O)c3nn(Cc4ccc(C(C)(C)C)cc4)c4ccccc34)C[C@@H](C1)N2C [Example 11, endo-3,9-Dimethyl-3,9-diazabicyclo[3.3.1]non-7-yl 1-(4-tert-butylbenzyl) indazole-3-carboxamide] | 39 | 53 |  |  |  |
| CN1C[C@H]2C[C@@H](NC(=O)c3nn(CC4CCCCC4)c4ccccc34)C[C@@H](C1)N2C [Example 3, endo-3,9-Dimethyl-3,9-diazabicyclo[3.3.1]non-7-yl 1-cyclohexylmethylindazole-3-carboxamide] | 13 | 70 |  |  |  |
| CC(=O)Cn1nc(C(=O)N[C@@H]2C[C@@H]3CN(C)C[C@H](C2)N3C)c2ccccc21 [Example 12, endo-3,9-Dimethyl-3,9-diazabicyclo[3.3.1]non-7-yl 1-(2-oxopropyl) indazole-3-carboxamide] | 57 | 72 |  | 45 |  |
| COc1ccc(Cn2nc(C(=O)N[C@@H]3C[C@@H]4CN(C)C[C@H](C3)N4C)c3ccccc32)cc1 [Example 5] | 29 | 44 | 91 |  |  |
